Laboratory results taken from ChEMBL document CHEMBL3991601, “The target landscape of clinical kinase drugs” (Science, 2017).
Activity calls are given as the source filed them.

Legend:
[1] = biological target: T1, ATP-dependent 6-phosphofructokinase, platelet type (Homo sapiens, UniProt Q01813)
T1 sequence (Q01813 whole entry): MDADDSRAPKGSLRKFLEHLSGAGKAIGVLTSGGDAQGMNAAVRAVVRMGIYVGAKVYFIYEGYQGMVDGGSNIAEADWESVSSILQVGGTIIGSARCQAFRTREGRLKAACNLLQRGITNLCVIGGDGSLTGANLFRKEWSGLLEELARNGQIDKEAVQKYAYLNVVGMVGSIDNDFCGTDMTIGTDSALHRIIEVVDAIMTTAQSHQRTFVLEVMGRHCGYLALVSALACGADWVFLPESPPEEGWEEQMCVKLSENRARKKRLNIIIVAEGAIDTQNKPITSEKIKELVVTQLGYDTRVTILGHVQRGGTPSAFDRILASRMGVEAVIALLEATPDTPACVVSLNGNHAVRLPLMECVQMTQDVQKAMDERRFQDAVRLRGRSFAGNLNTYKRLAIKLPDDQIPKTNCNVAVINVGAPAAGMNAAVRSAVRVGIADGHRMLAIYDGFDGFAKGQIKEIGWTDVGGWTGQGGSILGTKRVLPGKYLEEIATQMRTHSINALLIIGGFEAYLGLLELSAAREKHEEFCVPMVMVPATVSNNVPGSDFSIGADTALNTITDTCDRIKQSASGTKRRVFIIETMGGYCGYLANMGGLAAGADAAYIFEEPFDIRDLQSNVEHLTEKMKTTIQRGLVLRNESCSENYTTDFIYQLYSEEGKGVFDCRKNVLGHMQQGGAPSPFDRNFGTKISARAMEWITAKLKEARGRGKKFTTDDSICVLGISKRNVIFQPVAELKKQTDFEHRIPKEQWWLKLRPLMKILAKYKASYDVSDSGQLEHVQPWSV

[2] = biological target: T2, Cytochrome c1, heme protein, mitochondrial (Homo sapiens, UniProt P08574)
T2 sequence (P08574 whole entry): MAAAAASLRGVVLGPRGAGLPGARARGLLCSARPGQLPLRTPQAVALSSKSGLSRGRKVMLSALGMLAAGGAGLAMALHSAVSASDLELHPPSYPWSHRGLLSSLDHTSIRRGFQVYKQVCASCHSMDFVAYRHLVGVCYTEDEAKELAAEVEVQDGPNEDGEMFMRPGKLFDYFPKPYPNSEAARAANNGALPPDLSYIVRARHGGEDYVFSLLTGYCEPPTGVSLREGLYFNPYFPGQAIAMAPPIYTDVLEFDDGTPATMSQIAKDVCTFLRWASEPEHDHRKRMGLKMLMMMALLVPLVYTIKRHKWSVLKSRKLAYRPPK

Heme oxygenase 2 = biological target: T3, Heme oxygenase 2 (Homo sapiens, UniProt P30519)
T3 sequence (P30519 whole entry): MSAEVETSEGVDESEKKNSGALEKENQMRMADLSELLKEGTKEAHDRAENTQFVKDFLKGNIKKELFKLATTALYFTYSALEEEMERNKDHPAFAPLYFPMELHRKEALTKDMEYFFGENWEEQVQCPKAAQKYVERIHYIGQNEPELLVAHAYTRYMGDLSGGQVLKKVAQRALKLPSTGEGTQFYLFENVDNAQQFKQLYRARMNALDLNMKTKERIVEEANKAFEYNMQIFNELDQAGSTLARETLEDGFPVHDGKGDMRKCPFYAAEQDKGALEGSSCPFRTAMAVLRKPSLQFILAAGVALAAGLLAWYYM

[3] = biological target: Maternal embryonic leucine zipper kinase (Homo sapiens, UniProt Q14680)
Maternal embryonic leucine zipper kinase, sequence (Q14680 whole entry): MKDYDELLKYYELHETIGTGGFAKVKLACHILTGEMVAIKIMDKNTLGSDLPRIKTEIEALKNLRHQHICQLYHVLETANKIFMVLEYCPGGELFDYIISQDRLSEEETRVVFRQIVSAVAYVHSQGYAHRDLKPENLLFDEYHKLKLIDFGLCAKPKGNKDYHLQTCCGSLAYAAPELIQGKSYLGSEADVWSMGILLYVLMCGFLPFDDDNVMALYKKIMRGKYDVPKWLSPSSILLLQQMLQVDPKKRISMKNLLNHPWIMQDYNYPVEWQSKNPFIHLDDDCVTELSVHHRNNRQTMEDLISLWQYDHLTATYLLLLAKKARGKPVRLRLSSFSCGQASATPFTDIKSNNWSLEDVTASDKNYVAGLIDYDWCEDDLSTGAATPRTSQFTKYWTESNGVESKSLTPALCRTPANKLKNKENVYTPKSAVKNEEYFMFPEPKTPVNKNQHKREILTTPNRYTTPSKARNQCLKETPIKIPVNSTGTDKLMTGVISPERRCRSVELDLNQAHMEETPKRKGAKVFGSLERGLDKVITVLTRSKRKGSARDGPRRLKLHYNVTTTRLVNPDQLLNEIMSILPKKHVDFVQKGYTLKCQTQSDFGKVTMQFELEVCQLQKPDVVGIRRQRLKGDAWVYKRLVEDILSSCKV

[4] = biological target: T4, Tyrosine--tRNA ligase, cytoplasmic (Homo sapiens, UniProt P54577)
T4 sequence (P54577 whole entry): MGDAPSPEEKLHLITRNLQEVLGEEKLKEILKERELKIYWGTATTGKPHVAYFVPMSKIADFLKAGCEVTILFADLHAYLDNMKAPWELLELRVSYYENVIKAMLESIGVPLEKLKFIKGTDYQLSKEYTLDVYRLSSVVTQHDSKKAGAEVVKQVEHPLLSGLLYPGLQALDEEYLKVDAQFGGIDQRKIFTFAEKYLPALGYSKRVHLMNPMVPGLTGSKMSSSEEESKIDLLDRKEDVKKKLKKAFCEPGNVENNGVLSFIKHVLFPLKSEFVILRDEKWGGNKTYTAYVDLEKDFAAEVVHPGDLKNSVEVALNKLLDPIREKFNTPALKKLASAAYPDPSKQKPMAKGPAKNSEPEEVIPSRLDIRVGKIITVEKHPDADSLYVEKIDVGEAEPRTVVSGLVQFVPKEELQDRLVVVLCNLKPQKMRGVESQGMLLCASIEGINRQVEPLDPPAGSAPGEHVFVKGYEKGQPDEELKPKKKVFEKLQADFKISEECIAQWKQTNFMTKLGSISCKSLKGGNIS

[5] = biological target: T5, Delta(24)-sterol reductase (Homo sapiens, UniProt Q15392)
T5 sequence (Q15392 whole entry): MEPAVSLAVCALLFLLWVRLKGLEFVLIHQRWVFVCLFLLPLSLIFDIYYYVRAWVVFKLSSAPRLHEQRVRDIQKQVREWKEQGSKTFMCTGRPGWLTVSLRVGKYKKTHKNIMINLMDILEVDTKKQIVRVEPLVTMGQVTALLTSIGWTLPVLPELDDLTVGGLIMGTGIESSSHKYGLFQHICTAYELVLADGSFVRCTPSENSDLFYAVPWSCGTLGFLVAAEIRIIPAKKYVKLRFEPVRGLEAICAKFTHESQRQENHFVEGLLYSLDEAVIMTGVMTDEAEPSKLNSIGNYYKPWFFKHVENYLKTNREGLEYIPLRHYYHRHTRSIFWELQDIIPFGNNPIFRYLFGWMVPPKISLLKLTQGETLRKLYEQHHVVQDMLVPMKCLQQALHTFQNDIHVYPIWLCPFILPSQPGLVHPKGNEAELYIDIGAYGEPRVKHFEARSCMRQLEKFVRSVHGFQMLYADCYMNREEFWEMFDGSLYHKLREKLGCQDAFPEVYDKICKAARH
Note: in the data inactive means no Kd found up to 30 µM.

| Structure (SMILES) | Kd [1] | Kd [2] | Kd (Heme oxygenase 2) | Kd [3] | Kd [4] | Kd [5] |
| --- | --- | --- | --- | --- | --- | --- |
| C=CCn1c(=O)c2cnc(Nc3ccc(N4CCN(C)CC4)cc3)nc2n1-c1cccc(C(C)(C)O)n1 [ADAVOSERTIB] | > 30 µM (inactive) | > 30 µM (inactive) | > 30 µM (inactive) | > 30 µM (inactive) | > 30 µM (inactive) | > 30 µM (inactive) |
| CCc1cc2c(cc1N1CCC(N3CCOCC3)CC1)C(C)(C)c1[nH]c3cc(C#N)ccc3c1C2=O [ALECTINIB] | > 30 µM (inactive) | > 30 µM (inactive) | > 30 µM (inactive) | > 30 µM (inactive) | > 30 µM (inactive) | > 30 µM (inactive) |
| S=C(NCc1ccc2c(c1)OCO2)N1CCN(c2ncnc3c2oc2ccccc23)CC1 [AMUVATINIB] | > 30 µM (inactive) | > 30 µM (inactive) | > 30 µM (inactive) | > 30 µM (inactive) | > 30 µM (inactive) | > 30 µM (inactive) |
| NC[C@@](O)(c1ccc(Cl)cc1)c1ccc(-c2cn[nH]c2)cc1 [AT-13148] | > 30 µM (inactive) | > 30 µM (inactive) | > 30 µM (inactive) | > 30 µM (inactive) | > 30 µM (inactive) | > 30 µM (inactive) |
| COc1ccc(-c2ccc3ncc4c(c3c2)n(-c2ccc(N3CCNCC3)c(C(F)(F)F)c2)c(=O)n4C)cn1 [BGT-226 FREE BASE] | > 30 µM (inactive) | > 30 µM (inactive) | > 30 µM (inactive) | 4.08 µM (active) | > 30 µM (inactive) | > 30 µM (inactive) |
| COc1cc2nccc(Oc3ccc(NC(=O)C4(C(=O)Nc5ccc(F)cc5)CC4)cc3)c2cc1OC [CABOZANTINIB] | > 30 µM (inactive) | > 30 µM (inactive) | > 30 µM (inactive) | > 30 µM (inactive) | > 30 µM (inactive) | > 30 µM (inactive) |
| CC1(COc2ccc3c(c2)ncn3-c2ccc3cccc(N4CCC(N)CC4)c3n2)COC1 [CRENOLANIB] | > 30 µM (inactive) | > 30 µM (inactive) | > 30 µM (inactive) | 4.23 µM (active) | 3.32 µM | > 30 µM (inactive) |
| COc1cc2ncnc(Nc3ccc(F)c(Cl)c3)c2cc1NC(=O)/C=C/CN1CCCCC1 [DACOMITINIB ANHYDROUS] | > 30 µM (inactive) | > 30 µM (inactive) | > 30 µM (inactive) | > 30 µM (inactive) | > 30 µM (inactive) | > 30 µM (inactive) |
| Cn1c(=O)n(-c2ccc(C(C)(C)C#N)cc2)c2c3cc(-c4cnc5ccccc5c4)ccc3ncc21 [DACTOLISIB] | > 30 µM (inactive) | > 30 µM (inactive) | > 30 µM (inactive) | > 30 µM (inactive) | > 30 µM (inactive) | > 30 µM (inactive) |
| CC[C@@](C)(Nc1ccnc(-c2c[nH]c3ncccc23)n1)C(=O)NCC(F)(F)F [DECERNOTINIB] | > 30 µM (inactive) | > 30 µM (inactive) | > 30 µM (inactive) | > 30 µM (inactive) | > 30 µM (inactive) | > 30 µM (inactive) |
| O=S(=O)(c1cccc2cnccc12)N1CCCNCC1 [FASUDIL] | > 30 µM (inactive) | > 30 µM (inactive) | > 30 µM (inactive) | 1.92 µM (active) | > 30 µM (inactive) | > 30 µM (inactive) |
| COc1cc(Nc2ncc(F)c(Nc3ccc4c(n3)N(COP(=O)(O)O)C(=O)C(C)(C)O4)n2)cc(OC)c1OC [FOSTAMATINIB] | > 30 µM (inactive) | > 30 µM (inactive) | > 30 µM (inactive) | > 30 µM (inactive) | > 30 µM (inactive) | > 30 µM (inactive) |
| CCc1nc(C(N)=O)c(Nc2ccc(N3CCC(N4CCN(C)CC4)CC3)c(OC)c2)nc1NC1CCOCC1 [GILTERITINIB] | > 30 µM (inactive) | 0.202 µM | > 30 µM (inactive) | > 30 µM (inactive) | > 30 µM (inactive) | 0.432 µM (active) |
| Cc1c(Cn2c(C)nc3c(C(=O)O)cc(N4CCOCC4)cc32)cccc1C(F)(F)F [GSK-2636771] | > 30 µM (inactive) | > 30 µM (inactive) | > 30 µM (inactive) | > 30 µM (inactive) | > 30 µM (inactive) | > 30 µM (inactive) |
| O=S(=O)(c1cccc2c(O)nccc12)N1CCCNCC1 [HYDROXYFASUDIL] | > 30 µM (inactive) | > 30 µM (inactive) | > 30 µM (inactive) | > 30 µM (inactive) | > 30 µM (inactive) | > 30 µM (inactive) |
| C#Cc1cccc(Nc2ncnc3cc4c(cc23)OCCOCCOCCO4)c1 [ICOTINIB] | > 30 µM (inactive) | > 30 µM (inactive) | > 30 µM (inactive) | > 30 µM (inactive) | > 30 µM (inactive) | > 30 µM (inactive) |
| Cc1ccc(C(=O)Nc2ccc(Oc3cc4cnn(C)c4cc3-c3cn[nH]c3)c(F)c2)c(=O)n1-c1ccc(F)cc1 [MERESTINIB] | > 30 µM (inactive) | > 30 µM (inactive) | > 30 µM (inactive) | > 30 µM (inactive) | > 30 µM (inactive) | > 30 µM (inactive) |

Now from value to molecule:

| Kd [1] | Kd [2] | Kd (Heme oxygenase 2) | Kd [3] | Kd [4] | Kd [5] | Structure (SMILES) |
| --- | --- | --- | --- | --- | --- | --- |
| > 30 µM (inactive) | > 30 µM (inactive) | > 30 µM (inactive) | > 30 µM (inactive) | > 30 µM (inactive) | > 30 µM (inactive) | Cc1cc(Nc2nc(N[C@@H](C)c3ncc(F)cn3)ncc2Cl)n[nH]1 [AZD-1480] |
| > 30 µM (inactive) | > 30 µM (inactive) | > 30 µM (inactive) | > 30 µM (inactive) | > 30 µM (inactive) | > 30 µM (inactive) | COc1cccc(Nc2ncnn3ccc(CN4CC[C@@H](N)[C@H](O)C4)c23)c1 [BMS-690514] |
| > 30 µM (inactive) | > 30 µM (inactive) | > 30 µM (inactive) | > 30 µM (inactive) | > 30 µM (inactive) | > 30 µM (inactive) | CCOc1ccn(-c2ccc(F)cc2)c(=O)c1C(=O)Nc1ccc(Oc2ccnc(N)c2Cl)c(F)c1 [BMS-777607] |
| > 30 µM (inactive) | > 30 µM (inactive) | > 30 µM (inactive) | 0.217 µM (active) | > 30 µM (inactive) | > 30 µM (inactive) | c1cc(OCCN2CCCCC2)cc(-c2n[nH]c3ccc(-c4nc[nH]n4)cc23)c1 [CC-401] |
